The source of these data is ChEMBL document CHEMBL3596110, “Design of glycosyltransferase inhibitors targeting human O-GlcNAc transferase (OGT)” (Medchemcomm, 2014).

Data set [1] has as its target T1, UDP-N-acetylglucosamine--peptide N-acetylglucosaminyltransferase 110 kDa subunit (Homo sapiens) (UniProt O15294).
T1 sequence (whole entry): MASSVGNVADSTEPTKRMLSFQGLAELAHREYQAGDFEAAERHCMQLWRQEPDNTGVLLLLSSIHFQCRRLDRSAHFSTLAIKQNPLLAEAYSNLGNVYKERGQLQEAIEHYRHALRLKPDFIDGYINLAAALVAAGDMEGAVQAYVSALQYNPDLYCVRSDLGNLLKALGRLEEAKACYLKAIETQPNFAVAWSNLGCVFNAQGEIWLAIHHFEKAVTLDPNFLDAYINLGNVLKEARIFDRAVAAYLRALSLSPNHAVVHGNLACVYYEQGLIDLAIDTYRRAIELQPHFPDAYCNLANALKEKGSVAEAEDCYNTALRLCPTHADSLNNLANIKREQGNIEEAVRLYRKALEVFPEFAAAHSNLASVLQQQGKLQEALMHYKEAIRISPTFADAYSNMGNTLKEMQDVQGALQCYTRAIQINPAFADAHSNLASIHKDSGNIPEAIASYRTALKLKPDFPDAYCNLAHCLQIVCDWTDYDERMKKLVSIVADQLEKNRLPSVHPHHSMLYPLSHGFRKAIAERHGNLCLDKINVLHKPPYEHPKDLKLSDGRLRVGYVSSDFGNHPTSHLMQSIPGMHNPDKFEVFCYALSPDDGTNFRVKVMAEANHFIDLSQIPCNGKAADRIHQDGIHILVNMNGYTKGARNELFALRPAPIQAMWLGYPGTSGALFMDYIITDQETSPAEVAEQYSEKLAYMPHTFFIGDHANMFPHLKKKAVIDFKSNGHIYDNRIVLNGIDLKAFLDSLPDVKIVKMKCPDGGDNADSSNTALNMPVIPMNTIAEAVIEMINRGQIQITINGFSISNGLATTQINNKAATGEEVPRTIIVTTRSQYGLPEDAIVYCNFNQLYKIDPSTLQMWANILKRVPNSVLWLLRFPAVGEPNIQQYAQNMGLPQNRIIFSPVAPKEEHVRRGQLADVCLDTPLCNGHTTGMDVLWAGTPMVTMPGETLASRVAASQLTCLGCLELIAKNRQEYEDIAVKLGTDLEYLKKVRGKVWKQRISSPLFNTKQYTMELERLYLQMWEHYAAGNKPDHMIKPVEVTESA
Briefly: Inhibition of OGT in human MCF7 cells assessed as decrease in intracellular O-GlcNAcylated protein level up to 500 uM after 24 to 48 hrs by immunoblot analysis. The data set is classed as cell-based. Background: A western blot detects proteins with antibodies after separation by electrophoresis.

Data set [2] deals with T1, UDP-N-acetylglucosamine--peptide N-acetylglucosaminyltransferase 110 kDa subunit (Homo sapiens). Briefly: Inhibition of human OGT using [3H]-UDP-GlcNAc as donor and recombinant nup2 as acceptor at 50 uM by liquid scintillation counting analysis.
Data set [3] has as its target T2, UDP-N-acetylglucosamine--peptide N-acetylglucosaminyltransferase 110 kDa subunit (Homo sapiens, UniProt O15294).
T2 sequence (O15294 whole entry): T1 sequence (whole entry)
Briefly: Inhibition of human OGT using [3H]-UDP-GlcNAc as donor and recombinant nup2 as acceptor by liquid scintillation counting analysis.

In data set [4] the target is T2, UDP-N-acetylglucosamine--peptide N-acetylglucosaminyltransferase 110 kDa subunit. In words: Inhibition of human OGT using [3H]-UDP-GlcNAc as donor and recombinant nup2 as acceptor by Dixon plot analysis.
Data set [5] can be described thus: Permeability across POPC liposomes by out-in method. Format: ADME.
The target of data set [6] is T1, UDP-N-acetylglucosamine--peptide N-acetylglucosaminyltransferase 110 kDa subunit (Homo sapiens). Briefly: Inhibition of OGT in human MCF10A cells assessed as decrease in intracellular O-GlcNAcylated protein level up to 500 uM after 24 to 48 hrs by immunoblot analysis. Format: cell-based. To be noted: MCF-10A.
For data set [7] the target is unchanged. In words: Inhibition of OGT in human HeLa cells assessed as decrease in intracellular O-GlcNAcylated protein level up to 500 uM after 24 to 48 hrs by immunoblot analysis. The data set is classed as cell-based.
Data set [8] in a line: Permeability across POPC liposomes by in-out method. The data set is classed as ADME.

Activity calls are given as the source filed them. The calls are words filed in the database; no cut-off is given here.

`CC(=O)N[C@@H]1[C@@H](O)[C@H](O)[C@@H](CO)O[C@H]1n1cc(-c2cccc(-c3cn(C[C@H]4O[C@@H](n5ccc(=O)[nH]c5=O)[C@H](O)[C@@H]4O)nn3)n2)nn1`: in data set [1], the inhibition (commonly the relative decrease from the control value, in per cent) was “inactive”. The inhibition in data set [2] amounted to 6.7%.
Take `O=C(Oc1ccccc1)n1c(=O)oc2ccc(Cl)cc21`: the IC50 (as a rule, the concentration at which inhibition is half-maximal) in data set [3] came out at 10 µM.
In the case of `O=C(NC[C@H]1O[C@@H](n2ccc(=O)[nH]c2=O)[C@H](O)[C@@H]1O)c1cccc(-c2cn([C@@H]3O[C@H](CO)[C@@H](O)[C@H](O)[C@H]3O)nn2)n1`, the inhibition entry in data set [1] is “inactive”. Besides, in data set [2], the inhibition was determined as 4.2%.
For `CC(=O)N[C@@H]1[C@@H](O)[C@H](O)[C@@H](CO)S[C@@H]1OP(=O)(O)OP(=O)(O)OC[C@H]1O[C@@H](n2ccc(=O)[nH]c2=O)[C@H](O)[C@@H]1O`, in data set [4], the inhibition constant (Ki) (in general, a dissociation constant, usually derived from enzyme kinetics or from competition with a known ligand) was found to be 8 µM.
`O=C(NC[C@H]1O[C@@H](n2ccc(=O)[nH]c2=O)[C@H](O)[C@@H]1O)c1cccc(Br)n1`: the inhibition result in data set [1] is “inactive”. Moreover, the inhibition in data set [2] was found to be 7.6%.
`CC(=O)N[C@@H]1[C@@H](O)[C@H](O)[C@@H](CO)O[C@@H]1SP(=O)(O)OP(=O)(O)OC[C@H]1O[C@@H](n2ccc(=O)[nH]c2=O)[C@H](O)[C@@H]1O`: the Ki in data set [4] stood at 93 µM.
For the compound `O=C(N[C@@H]1O[C@H](CO)[C@@H](O)[C@H](O)[C@H]1O)c1cccc(Cc2cn(C[C@H]3O[C@@H](n4ccc(=O)[nH]c4=O)[C@H](O)[C@@H]3O)nn2)n1`, the permeability entry in data set [5] and in data set [8] was “impermeable” in each case. The inhibition result in data set [1], in data set [6] and in data set [7] was “inactive” each time. Also, in data set [3], the IC50 is 340 µM. In addition, the inhibition in data set [2] amounted to 18%. Besides, the Ki in data set [4] was 420 µM.
With `O=C(NC[C@H]1O[C@@H](n2ccc(=O)[nH]c2=O)[C@H](O)[C@@H]1O)c1cccc(CO[C@@H]2O[C@H](CO)[C@@H](O)[C@H](O)[C@H]2O)n1`, the permeability entry in data set [5] and in data set [8] was “impermeable” throughout.
As to `O=c1ccn([C@@H]2O[C@H](Cn3cc(-c4cccc(Br)n4)nn3)[C@@H](O)[C@H]2O)c(=O)[nH]1`, the 50% inhibitory concentration (IC50) in data set [3] came out at 710 µM. The inhibition in data set [2] came out at 15.5%.
On to `CC(=O)N[C@@H]1[C@@H](O)[C@H](O)[C@@H](CO)O[C@H]1NC(=O)c1cccc(Cc2cn(C[C@H]3O[C@@H](n4ccc(=O)[nH]c4=O)[C@H](O)[C@@H]3O)nn2)n1`, for which the inhibition entry in data set [1] is “inactive”. For the same compound, in data set [2], the inhibition was 3%.
Regarding `O=c1ccn([C@@H]2O[C@H](Cn3cc(-c4cccc(-c5cn([C@@H]6O[C@H](CO)[C@@H](O)[C@H](O)[C@H]6O)nn5)n4)nn3)[C@@H](O)[C@H]2O)c(=O)[nH]1`, the inhibition result in data set [1] was “inactive”. For the same compound, the IC50 in data set [3] came to 1600 µM. The inhibition in data set [2] worked out at 13.3%.
Take `CC(=O)N[C@@H]1[C@@H](O)[C@H](O)[C@@H](CO)O[C@H]1n1cc(-c2cccc(C(=O)NC[C@H]3O[C@@H](n4ccc(=O)[nH]c4=O)[C@H](O)[C@@H]3O)n2)nn1`: the inhibition entry in data set [1] is “inactive”. In data set [2], the inhibition was 9.7%.
